Source: publication PMC5206724, “Insensitivity to pain induced by a potent selective closed-state Nav1.7 inhibitor” (Scientific Reports, 2017)

Experiments:
hNav1.6 = hNav1.6 (Homo sapiens, UniProt Q9UQD0); assay: cell-based; settings: patch clamp method not given; read-out: pIC50 Nav1.6 (converted)
hNav1.7 = target: T1, hNav1.7 (Homo sapiens, UniProt Q15858); assay: cell-based; settings: patch clamp method not given; read-out: pIC50 Nav1.7 (converted)
T1 construct: host or cells: HEK293

hNav1.4 = hNav1.4 (Homo sapiens, UniProt P35499); assay: cell-based; settings: patch clamp method not given; read-out: pIC50 Nav1.4 (converted)
[1] = test system: TTX-resistant sodium current, rat DRG cells; assay: Rat DRG patch clamp, TTX-resistant current; format: cell-based
[2] = test system: mixed sodium current, rat DRG cells; format: cell-based
[3] = test system: TTX-sensitive current, rat DRG cells; format: cell-based
[4] = test system: formalin-induced flinching, morphine-tolerant rats; settings: rat, in vivo; cited from earlier work
[5] = test system: formalin-induced flinching, rat; settings: in vivo
[6] = test system: formalin-induced flinching, morphine-tolerant rats; settings: rat, in vivo
Procedure: A soft metal band was glued to the plantar side of one hind paw and rats were allowed to acclimate in the test chamber for 30 min. […] The incidence of nociceptive behavior - flinching and shaking of the injected paw was counted by an automated formalin apparatus (University Anesthesia Research and Development Group, Department of Anesthesiology, University of California, San Diego, La Jolla, CA). The number of paw flinches was tallied by minute over 60 min[60]. Total flinches in phase I (0~10 min) and phase II (11~60 min) were calculated.
Male Sprague-Dawley (CD) rats (Charles River, San Diego) ~250–300 g were catheterized intrathecally as described above. The non-indwelling end (PE60) of the catheter was connected to the flow modulator of an osmotic pump (Alzet 2001, 1 μl/h) loaded with morphine or saline vehicle, which underwent priming at 37 °C overnight in sterile saline. The osmotic pump was implanted subcutaneously above the scapula. To induce morphine tolerance, morphine was infused intrathecally by the osmotic pump at a dose of 15 μg/h for 7 days[61]. On day 7 the pumps were extracted and the wounds were closed with the intrathecal catheters left in place. Catheters were flushed with 20 μL of saline.

[7] = rat, in vivo, iv; cited from earlier work
[8] = rat, in vivo

T1 sequence (Q15858 whole entry): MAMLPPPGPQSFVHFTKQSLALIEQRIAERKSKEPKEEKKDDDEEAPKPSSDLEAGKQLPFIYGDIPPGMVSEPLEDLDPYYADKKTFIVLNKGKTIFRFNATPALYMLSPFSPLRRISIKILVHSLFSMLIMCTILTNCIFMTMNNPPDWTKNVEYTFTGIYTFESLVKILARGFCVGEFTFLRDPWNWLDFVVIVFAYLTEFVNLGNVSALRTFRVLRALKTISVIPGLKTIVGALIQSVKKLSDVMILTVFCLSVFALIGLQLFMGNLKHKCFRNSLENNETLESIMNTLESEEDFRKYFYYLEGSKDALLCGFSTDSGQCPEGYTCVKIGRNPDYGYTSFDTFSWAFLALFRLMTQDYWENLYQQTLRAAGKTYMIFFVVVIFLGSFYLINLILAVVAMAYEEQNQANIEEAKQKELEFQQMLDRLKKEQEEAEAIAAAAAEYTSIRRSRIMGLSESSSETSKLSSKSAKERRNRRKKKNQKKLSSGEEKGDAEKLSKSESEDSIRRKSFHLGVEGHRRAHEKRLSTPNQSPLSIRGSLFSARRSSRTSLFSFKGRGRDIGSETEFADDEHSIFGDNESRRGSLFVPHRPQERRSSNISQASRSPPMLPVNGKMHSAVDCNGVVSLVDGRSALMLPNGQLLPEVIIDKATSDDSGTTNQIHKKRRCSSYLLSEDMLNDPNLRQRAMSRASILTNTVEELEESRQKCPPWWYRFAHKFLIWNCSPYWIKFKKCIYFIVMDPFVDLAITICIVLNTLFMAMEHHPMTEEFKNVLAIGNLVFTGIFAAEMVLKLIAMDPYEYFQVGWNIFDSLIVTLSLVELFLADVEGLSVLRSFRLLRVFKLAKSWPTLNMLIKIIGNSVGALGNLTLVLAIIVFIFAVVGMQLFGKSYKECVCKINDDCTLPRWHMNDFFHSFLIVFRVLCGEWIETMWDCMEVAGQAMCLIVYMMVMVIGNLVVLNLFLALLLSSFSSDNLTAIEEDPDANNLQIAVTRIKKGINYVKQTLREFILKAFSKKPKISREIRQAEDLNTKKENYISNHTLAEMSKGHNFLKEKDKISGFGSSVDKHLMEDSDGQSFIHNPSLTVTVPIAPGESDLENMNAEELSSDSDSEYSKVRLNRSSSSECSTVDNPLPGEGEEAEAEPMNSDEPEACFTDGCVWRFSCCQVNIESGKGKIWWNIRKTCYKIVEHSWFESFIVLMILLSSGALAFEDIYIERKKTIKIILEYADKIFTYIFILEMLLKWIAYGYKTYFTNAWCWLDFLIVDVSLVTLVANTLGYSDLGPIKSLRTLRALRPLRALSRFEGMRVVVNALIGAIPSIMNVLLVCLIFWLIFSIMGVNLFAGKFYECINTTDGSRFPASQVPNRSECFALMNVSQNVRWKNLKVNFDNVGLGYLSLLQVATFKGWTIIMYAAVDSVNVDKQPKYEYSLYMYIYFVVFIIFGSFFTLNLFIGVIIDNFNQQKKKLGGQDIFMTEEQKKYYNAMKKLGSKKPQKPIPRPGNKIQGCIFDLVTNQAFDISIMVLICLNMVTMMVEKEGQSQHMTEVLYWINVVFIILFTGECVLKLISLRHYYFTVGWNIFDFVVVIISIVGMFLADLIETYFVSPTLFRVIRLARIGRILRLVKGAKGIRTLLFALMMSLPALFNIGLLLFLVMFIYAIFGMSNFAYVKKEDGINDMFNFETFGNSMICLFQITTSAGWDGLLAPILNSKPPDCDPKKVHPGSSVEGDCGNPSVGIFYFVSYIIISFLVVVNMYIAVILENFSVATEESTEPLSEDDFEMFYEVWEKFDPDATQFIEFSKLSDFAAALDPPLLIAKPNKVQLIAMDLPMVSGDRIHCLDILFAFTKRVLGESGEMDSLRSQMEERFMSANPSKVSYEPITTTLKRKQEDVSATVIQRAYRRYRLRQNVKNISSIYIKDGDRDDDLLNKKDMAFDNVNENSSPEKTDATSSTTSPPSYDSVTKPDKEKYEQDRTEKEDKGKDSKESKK
Chain of hNav1.4 (P35499 whole entry): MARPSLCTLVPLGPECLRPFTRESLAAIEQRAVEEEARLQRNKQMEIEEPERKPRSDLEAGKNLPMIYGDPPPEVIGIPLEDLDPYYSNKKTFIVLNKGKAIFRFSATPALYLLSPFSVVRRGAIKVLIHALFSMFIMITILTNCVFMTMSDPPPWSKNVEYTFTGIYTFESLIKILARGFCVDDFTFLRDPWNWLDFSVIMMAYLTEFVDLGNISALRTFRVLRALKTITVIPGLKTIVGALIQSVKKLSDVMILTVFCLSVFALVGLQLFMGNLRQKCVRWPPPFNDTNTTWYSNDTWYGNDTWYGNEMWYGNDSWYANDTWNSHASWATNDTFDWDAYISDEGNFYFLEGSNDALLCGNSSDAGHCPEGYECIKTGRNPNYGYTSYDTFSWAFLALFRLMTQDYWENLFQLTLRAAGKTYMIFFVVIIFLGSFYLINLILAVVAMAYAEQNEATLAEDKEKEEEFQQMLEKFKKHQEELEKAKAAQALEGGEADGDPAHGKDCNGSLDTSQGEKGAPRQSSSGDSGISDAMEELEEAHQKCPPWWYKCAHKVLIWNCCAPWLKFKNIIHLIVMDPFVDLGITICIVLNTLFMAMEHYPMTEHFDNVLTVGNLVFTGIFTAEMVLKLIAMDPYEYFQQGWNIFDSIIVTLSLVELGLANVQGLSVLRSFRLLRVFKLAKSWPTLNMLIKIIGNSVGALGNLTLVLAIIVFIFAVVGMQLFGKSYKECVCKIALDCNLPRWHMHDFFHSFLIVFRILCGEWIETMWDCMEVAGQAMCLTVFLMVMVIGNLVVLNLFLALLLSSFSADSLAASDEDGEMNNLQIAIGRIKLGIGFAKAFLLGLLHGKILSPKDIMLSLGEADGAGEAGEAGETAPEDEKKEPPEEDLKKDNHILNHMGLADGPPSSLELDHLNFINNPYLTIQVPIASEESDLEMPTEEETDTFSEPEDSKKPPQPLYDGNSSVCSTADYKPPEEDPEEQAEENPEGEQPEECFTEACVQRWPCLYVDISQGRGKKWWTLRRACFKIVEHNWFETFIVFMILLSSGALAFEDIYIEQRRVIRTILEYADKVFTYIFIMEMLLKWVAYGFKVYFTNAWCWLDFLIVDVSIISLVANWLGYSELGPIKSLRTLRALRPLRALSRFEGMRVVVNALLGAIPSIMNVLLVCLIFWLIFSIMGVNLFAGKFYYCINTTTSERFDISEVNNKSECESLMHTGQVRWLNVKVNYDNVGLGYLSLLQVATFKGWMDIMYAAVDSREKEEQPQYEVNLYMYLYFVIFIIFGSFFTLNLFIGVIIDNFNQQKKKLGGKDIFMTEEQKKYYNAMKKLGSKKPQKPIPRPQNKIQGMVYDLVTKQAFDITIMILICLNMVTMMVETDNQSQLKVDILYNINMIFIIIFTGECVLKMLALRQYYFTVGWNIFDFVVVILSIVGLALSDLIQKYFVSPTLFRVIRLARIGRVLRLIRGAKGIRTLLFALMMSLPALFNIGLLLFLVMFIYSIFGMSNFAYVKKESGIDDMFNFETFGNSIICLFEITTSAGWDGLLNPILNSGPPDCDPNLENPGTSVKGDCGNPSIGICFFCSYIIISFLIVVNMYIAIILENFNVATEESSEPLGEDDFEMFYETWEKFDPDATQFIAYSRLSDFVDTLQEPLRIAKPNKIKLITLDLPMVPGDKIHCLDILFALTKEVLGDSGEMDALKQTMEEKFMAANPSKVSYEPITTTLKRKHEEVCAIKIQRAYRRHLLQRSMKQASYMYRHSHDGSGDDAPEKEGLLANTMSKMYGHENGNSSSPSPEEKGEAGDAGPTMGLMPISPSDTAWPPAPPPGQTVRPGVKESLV

With CSCC[C@@H]1NC(=O)CNC(=O)[C@H](CCC(=O)O)NC(=O)[C@@H]2CSSC[C@H](NC(=O)[C@@H](N)Cc3ccc(O)cc3)C(=O)N[C@@H](CCC(N)=O)C(=O)N[C@@H](CCCCN)C(=O)N[C@@H](Cc3c[nH]c4ccccc34)C(=O)N[C@@H](CCSC)C(=O)N[C@@H](CCC(N)=O)C(=O)N[C@@H]([C@@H](C)O)C(=O)N[C@H]3CSSC[C@H](NC(=O)[C@H](C(C)C)NC1=O)C(=O)N[C@@H](CCCNC(=N)N)C(=O)N[C@@H](CC(C)C)C(=O)N[C@@H](Cc1c[nH]c4ccccc14)C(=O)N[C@H](C(=O)N[C@@H](CCCCN)C(=O)N[C@@H](CCCCN)C(=O)N[C@@H](CCCCN)C(=O)N[C@@H](CC(C)C)C(=O)N[C@@H](CC(C)C)C(=O)O)CSSC[C@H](NC(=O)[C@H](CCCCN)NC(=O)[C@H](CCCNC(=N)N)NC(=O)[C@H](CCC(=O)O)NC(=O)[C@H](CO)NC(=O)[C@H](CC(=O)O)NC3=O)C(=O)N2 [ProTX-II W7Q, W30L] the IC50 (hNav1.6) was 2000 nM, the IC50 (hNav1.7) was 10 nM and the IC50 (hNav1.4) was 3980 nM.

In the case of NC1=N[C@H](O)[C@H]2[C@H]3O[C@]4(O)O[C@@H]([C@@H](O)[C@@]2(N1)[C@@H]4O)[C@]3(O)CO [TTX, tetrodotoxin], the “block, predominantly TTX-resistant cells” value [1] is reported as < 10%, the “block, mixed cells” value [2] is reported as 29–68% and the “block, predominantly TTX-sensitive cells” value [3] is reported as ~ 100%.

In the case of CN1CC[C@]23c4c5ccc(O)c4O[C@H]2[C@@H](O)C=C[C@H]3[C@H]1C5 [morphine], the “block of phase 2 during morphine infusion, day 2” value [4] is given as “significant block of phase 2 on day 2”, the “pED50 formalin (phase II)” value [5] is given as 5.4 ± 0.22 −log g and the “efficacy during morphine infusion, day 7” value [6] is given as “loses its efficacy by day 7”. The “phase II formalin flinching, morphine-tolerant rats” value [6] was “did not significantly reduce phase II formalin flinching”.

For ziconotide [reference compound], the “pED50 formalin (phase II)” value [5] is listed as 7.1 ± 0.18 −log g, the “histamine release and hemodynamic changes” value [7] is listed as “induce histamine release and associated hemodynamic changes” and the behavioral side effects [8] is listed as “whole body shakes, increased muscle tone and “serpentine” tail movement”. The scratching behavior [8] was “did not induce scratching behavior”.
